For 8 molecules, TGI and GI50 results are on record in PubChem BioAssay (NCI).

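Test compounds were applied to cells in 96-well plates for 48 hours at 5 doses. The concentration for 50% growth inhibition is given as GI50. TGI: total growth inhibition.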

Assay in all cases: DTP human tumour cell line panel, 48 h
The test system of assay [1] is HL-60(TB) leukemia.
In assay [2] the test system is HCT-116 colon.
For assay [3], the system named is SK-OV-3 ovarian.
In assay [4] the test system is SF-268 CNS.
Assay [5] concerns UO-31 renal.
Assay [6] concerns PC-3 prostate.
Assay [7] has as its system SF-295 CNS.
The subject of assay [8] is NCI/ADR-RES ovarian.
In assay [9] the test system is SK-MEL-5 melanoma.
In assay [10] the test system is SK-MEL-2 melanoma.

Consider `N=N/C(=C\c1c(O)[nH]c2ccccc12)c1ccccc1`, for which the TGI in assay [1] was 17.5 µM; in assay [2], more than 59.3 µM; in [3], more than 90.2 µM; in assay [4] it was more than 100 µM; in [5], more than 100 µM; in assay [6], more than 70.7 µM. For the same molecule, the TGI in assay [7] was 66 µM; in [8], more than 57.2 µM; in assay [9] it was more than 100 µM; in [10], more than 100 µM.
For the molecule `C[C@@H](NC(=O)/C(C#N)=C/c1ccc([N+](=O)[O-])cc1)c1ccccc1`, the GI50 is 2.42 µM in [1]; 1.89 µM in assay [2]; 8.33 µM in [3]; 3.69 µM in [4]; 0.559 µM in assay [5]; 2.34 µM in assay [6]. Moreover, the GI50 in assay [7] was 2.25 µM; in assay [8], 3.19 µM; in [9], 1.94 µM; in assay [10], 3.3 µM. For the same molecule, the TGI was 5.51 µM in assay [1]; 3.79 µM in assay [2]; 23.3 µM in assay [3]; 13.4 µM in [4]; 1.06 µM in [5]; 6.65 µM in [6]. Also, the TGI in [7] came out at 5.49 µM; in [8] it was 13.3 µM; in [9], 3.95 µM; in assay [10], 8.52 µM.
With `CC1=NN(c2ccc(S(=O)(=O)O)cc2)C(=O)/C1=C/c1ccc(Cl)cc1`, the TGI in assay [1], in assay [2], in assay [3], in assay [4], in assay [5] and in assay [6] was more than 100 µM in each case. Moreover, the TGI in assay [7], in assay [8], in [9] and in assay [10] was more than 100 µM in each case.
Turning to `CCCCCCCCCCCCSC1=C(Cl)C(=O)C(OC)=C(OC)C1=O`, the concentration for 50% growth inhibition (GI50) is 0.0502 µM in assay [1]; 0.508 µM in assay [2]; 9.78 µM in [3]; 3.08 µM in assay [4]; 2.27 µM in assay [5]; 1.18 µM in assay [6]. The GI50 in assay [7] is 2.03 µM; in assay [8] it was 2.48 µM; in assay [9], 0.49 µM; in assay [10], 4.36 µM. For the same molecule, the TGI in assay [1] was determined as 5.82 µM; in [2], 11.9 µM; in [3], 27.3 µM; in [4] it was 16.1 µM; in [5], 11.5 µM; in assay [6], 9.09 µM. Also, the TGI came out at 7 µM in assay [7], 8.94 µM in assay [8], 3.66 µM in [9] and 14.8 µM in assay [10].
Consider `COc1cc(/C(=C2/O[C@@H]([C@H]3COC(C)(C)O3)[C@H]3OC(C)(C)O[C@@H]23)c2ccc3ccccc3c2)cc(OC)c1OC`, for which the GI50 in assay [1] is 74.9 µM; in [2] it was 2.51 µM; in assay [3], 4.37 µM; in [4], 3.13 µM; in assay [5], 3.47 µM; in assay [6], 5.71 µM. In addition, the GI50 in assay [7] was 6.92 µM; in assay [8], 4.26 µM; in assay [9], 4.07 µM; in assay [10], 1.53 µM. For the same molecule, the TGI in assay [1] was more than 100 µM; in [2] it was 5.7 µM; in assay [3], more than 100 µM; in [4], 15.9 µM; in [5], more than 100 µM; in assay [6], more than 100 µM. Further, the concentration for total growth inhibition (TGI) in assay [7] stood at 52.1 µM; in assay [8], 22.3 µM; in [9], 15.4 µM; in assay [10], 4.12 µM.
For `COc1cc(C(=O)N2CCN(c3ccccc3)CC2)c2ccccc2n1`, the GI50 is 0.11 µM in assay [1]; 0.055 µM in [2]; 0.0993 µM in [3]; 0.2 µM in assay [4]; 0.0875 µM in assay [5]; 0.0846 µM in assay [6]. In addition, the GI50 in [7] was 0.0276 µM; in [8] it was 0.0361 µM; in assay [9], 0.0541 µM; in assay [10], 0.432 µM. The TGI was 28.1 µM in assay [2]; more than 100 µM in [3]; more than 100 µM in assay [4]; more than 83.7 µM in assay [5]; more than 100 µM in [6]; 0.115 µM in assay [7]. Besides, the TGI is 0.176 µM in [8], 9.42 µM in assay [9] and more than 100 µM in assay [10].
In the case of `C[C@]12CC[C@@H]3c4cc(OC(F)F)c(OS(N)(=O)=O)cc4CC[C@H]3[C@@H]1CC[C@@H]2OS(N)(=O)=O`, the GI50 in assay [1] is 0.829 µM; in assay [2] it was 0.997 µM; in assay [3] it was 6.14 µM; in assay [4], 6.44 µM; in [5], 1.42 µM; in [6] it was 1.41 µM. Moreover, the GI50 was 1.04 µM in [7], 0.696 µM in [8], 1.21 µM in [9] and 2.79 µM in assay [10]. Besides, the TGI in assay [1] was 27.6 µM; in assay [2], 13.9 µM; in [3] it was 33.2 µM; in [4], 49.8 µM; in [5] it was 19.4 µM; in assay [6] it was 30.6 µM. Also, the TGI in assay [7] stood at 3.14 µM; in assay [8], 28.9 µM; in assay [9] it was 13.4 µM; in [10], 24.9 µM.
Regarding `Cn1cc(C2=C(c3c4n(c5ccccc35)CCC(CN)C4)C(=O)NC2=O)c2ccccc21` (centres undefined), the GI50 in [1] was 4.13 µM; in assay [2], 2 µM; in [3], 4.11 µM; in assay [4], 3.95 µM; in [5], 3.25 µM; in [6], 2.77 µM. Further, the GI50 in assay [7] is 2.31 µM; in assay [8] it was 14.9 µM; in assay [9] it was 3.99 µM; in [10], 4.15 µM. The total growth inhibition concentration (TGI) was determined as 8.77 µM in assay [1]; 5.77 µM in [2]; 9.16 µM in [3]; 7.65 µM in assay [4]; 6.58 µM in [5]; 6.59 µM in assay [6]. For the same molecule, the TGI in assay [7] came out at 6.09 µM; in assay [8], 25 µM; in assay [9], 7.82 µM; in [10], 7.92 µM.
